Converted amounts (≈) assume the structure as drawn.
Experiments:
physchem = details: 25 °C, water
Description: (§1) The term “hardly water-soluble polyphenol” used in the present invention refers to the one having a poor solubility in water. […] The solubility represents herein a gram number of the solute being dissolved in 1 L of the solution with a unit of [g/L].

[1] = Solubility of the raw polyphenols (A) and (B) in water at 25° C.; details: for Solubility of (A) in water (25° C.): hardly water-soluble polyphenol (A) alone; for Solubility of (B) in water (25° C.): water-soluble polyphenol (B) alone
Description: as §1

Solubility of (B) in water (25° C.) [1]	Compound	Solubility of (A) in water (25° C.) [1]	further results
–	c1cc2c(cc1[C@H]1OC[C@H]3[C@@H]1CO[C@@H]3c1ccc3c(c1)OCO3)OCO2 [Sesamin, sesamin]	–	solubility (physchem): 0.14 µg/mL (≈ 0.395 µM)
–	COc1ccc([C@@H]2CC(=O)c3c(O)cc(O[C@@H]4O[C@H](CO[C@@H]5O[C@@H](C)[C@H](O)[C@@H](O)[C@H]5O)[C@@H](O)[C@H](O)[C@H]4O)cc3O2)cc1O [Hesperidin, hesperidin]	50 µg/mL	–
≥ 300 or g/L	glucosylhesperidin	–	–
–	O=c1oc2c(O)c(O)cc3c(=O)oc4c(O)c(O)cc1c4c23 [Ellagic acid, ellagic acid]	4 µg/mL	solubility ([1]; 25 °C): 4 µg/mL (≈ 13.2 µM)
15 g/L	O=C(O[C@@H]1Cc2c(O)cc(O)cc2O[C@@H]1c1cc(O)c(O)c(O)c1)c1cc(O)c(O)c(O)c1 [Catechin, epigallocatechin gallate]	–	–
